Numbered stars: 1 amine (or outer) side, 2 acyl side, 3 side chain; on linkers, the order of the positions; unused ones are H or OH. Bridge positions count the residues as written; N and C are the ends. Square brackets hold non-standard residues; d marks the D form. Peptide text beside a SMILES is read from it. X14 = CC[C@H](C)[C@@H](N[*:1])[C@@H](O)CC(=O)O[C@@H](C(C)C)[C@@H](O)[C@H](C)C(=O)[*:2]; X1 = CC[C@H](C)[C@@H](N[*:1])[C@@H](O)CC(=O)O[C@H](C(=O)[C@H](C)C(=O)[*:2])C(C)C; NMeY = CN[C@@H](Cc1ccc(O)cc1)C(=O)O; dNMeL = CN[C@H](CC(C)C)C(=O)O
Tests used:
[1] = earlier work of Gloer; cited from earlier work
L1210 = L1210 cytotoxicity, inhibition at fixed doses (Table 10); assay type: cell-based, murine; settings: tested 4/18/1991
[2] = system: Nb2 cells, rat T-cell node lymphoma; experiment: Competitive binding with [3H]didemnin B to Nb2 cells; settings: 3 h at 37° C.
Protocol: The immunosuppressive assay was performed by measuring competitive binding of tested compounds with [^3 H]didemnin B to Nb2 cells, rat T-cell node lymphoma. See, Russell, D. H., et al., J. Immunology, 1987, 138, 276-284.
^a Competing didemnins incubated with approximately 25 ng of [^3

[3] = system: DNA synthesis in Nb2 node lymphoma cells; experiment: Inhibition of ongoing DNA synthesis in prolactin-stimulated Nb2 cells; assay type: cell-based, rat; settings: Nb2 cells stimulated with prolactin for 24 h
Protocol: (§1) Also inhibitions of protein and DNA synthesis of several compounds were measured using Nb2 node lymphoma cells which were stimulated by a treatment of cells with prolactin. (ibid.)
(§2) ^a Nb2 cells were stimulated with prolactin for 24 h, then exposed to
(§3) ^b 50% Inhibitory concentration, calculated with linear regression

[4] = system: Protein synthesis in Nb2 node lymphoma cells; experiment: Inhibition of ongoing protein synthesis in prolactin-stimulated Nb2 cells; assay type: cell-based, rat; settings: Nb2 cells stimulated with prolactin for 24 h
Protocol: as §1, §2, §3

[5] = system: L1210 murine leukemia cells; settings: Table 9
Visna virus (VIV) = assay type: cell-based; settings: Table 9, 0.1 μg/mL
[6] = earlier work, Rinehart et al. 1988; cited from earlier work

| SMILES | cytotoxicity compared with Compound 1 [1] | Inhibition (%) (L1210; dose 25 ng/mL) | Inhibition (%) (L1210; dose 250 ng/mL) | Inhibition of [3H]didemnin B binding (%) ([2]; 0.001 μg/mL) | Inhibition of [3H]didemnin B binding (%) ([2]; 0.01 μg/mL) | Inhibition of [3H]didemnin B binding (%) ([2]; 0.1 μg/mL) | Inhibition of [3H]didemnin B binding (%) ([2]; 1 μg/mL) | IC50 DNA [3] | IC50 Protein [4] | CV-1 (CV-1 monkey kidney cells) | Cytotoxicity L1210 IC50 [5] | VIV Protection (Visna virus (VIV)) | antiviral activity (in vitro) [6] |
| --- | --- | --- | --- | --- | --- | --- | --- | --- | --- | --- | --- | --- | --- |
| CC[C@H](C)[C@H]1NC(=O)[C@@H](NC(=O)[C@@H](CC(C)C)NC)[C@@H](C)OC(=O)[C@H](Cc2ccc(OC)cc2)N(C)C(=O)[C@@H]2CCCN2C(=O)[C@H](CC(C)C)NC(=O)[C@@H](C)[C@H](O)[C@H](C(C)C)OC(=O)C[C@@H]1O [[Dihydro(2S,3S,4S)Hip^2]didemnin A, reference compound] (H-[dNMeL]T[X14]LP[NMeY](Me); ester 2-C) | weaker cytotoxicity than Compound 1 |  |  |  |  |  |  |  |  |  |  |  |  |
| CC[C@H](C)[C@@H](NC(=O)[C@@H](NC(=O)[C@@H](CC(C)C)NC)[C@@H](C)O)[C@@H](O)CC(=O)O[C@H](C(=O)[C@H](C)C(=O)N[C@@H](CC(C)C)C(=O)N1CCC[C@H]1C(=O)N(C)[C@@H](Cc1ccc(OC)cc1)C(=O)O)C(C)C [Acyclodidemnin A (16), Acyclodidemnin A] (H-[dNMeL]T[X1]LP[NMeY](Me)-OH) |  | 25% | 99% | 0% | 7% | 6% | 8% | inactive (1 g) | inactive (1 g) | 0 | 0.03 µg/mL |  |  |
| CC[C@H](C)[C@@H]1NC(=O)[C@@H](NC(=O)[C@H](CC(C)C)N(C)C(C)=O)[C@H](C)OC(=O)[C@H](Cc2ccc(OC)cc2)N(C)C(=O)[C@@H]2CCCN2C(=O)[C@H](CC(C)C)NC(=O)[C@@H](C)C(=O)[C@H](C(C)C)OC(=O)C[C@@H]1OC(C)=O [Diacetyldidemnin A (32), N,O-Diacetyldidemnin A] | weaker cytotoxicity than Compound 1 |  |  |  |  |  |  |  |  |  | 0.015 µg/mL | < 0% | improvement of the antiviral activity |

Reference: patent US5294603A, “Pharmaceutical compositions containing didemnins” (The Board of Trustees of The University of Illinois, priority 1992, dated 1994)
